Measured values reported in ChEMBL document CHEMBL5380875, “Discovery of a Potent and Oral Available Complex I OXPHOS Inhibitor That Abrogates Tumor Growth and Circumvents MEKi Resistance” (J Med Chem, 2023).
The source made the active and inactive calls. The calls are words filed in the database; no cut-off is given here.

Tests used:
[1] = Toxicity in mouse xenografted with human NCI-H460 cells with high-OXPHOS assessed as pathological changes in heart at 30 mg/kg, po bid administered for 18 days by H and E staining based analysis; type: organism-based; settings: in vivo, 432 h, time 18 day
A549 [2] = test: Inhibition of mitochondrial respiration in human Trametinib-resistant A549 cell assessed as reduction in spare oxygen consumption rate capacity at 50 to 200 nM incubated for 12 hrs by seahorse XF96 flux analyzer; type: functional, cell-based; settings: dose 50-200 nM
NCI-H460 [3] = test: Induction of apoptosis in human NCI-H460 cells with high-OXPHOS harboring KRAS Q61H mutant assessed as late apoptotic cells at 20 nM incubated for 72 hrs by Annexin V-FITC/propidium iodide staining based flow cytometry analysis (reference value: 5.68%); type: functional
NCI-H460 [4] = test: Inhibition of mitochondrial respiration in human NCI-H460 cells with high-OXPHOS assessed as reduction in basal oxygen consumption rate incubated for 12 hrs by seahorse XF96 flux analyzer; type: functional, cell-based; settings: dose 50-200 nM
A549 [5] = test: Inhibition of mitochondrial respiration in human Trametinib-resistant A549 cell assessed as reduction in maximal oxygen consumption rate at 50 to 200 nM incubated for 12 hrs by seahorse XF96 flux analyzer; type: functional, cell-based; settings: dose 50-200 nM
[6] = MRT (0 to 24 hrs) in ICR mouse at 1 mg/kg, iv measured for 24 hrs by LC-MS/MS analysis; type: ADME, organism-based; settings: in vivo
[7] = Cmax in ICR mouse at 10 mg/kg, po measured for 24 hrs by LC-MS/MS analysis; type: ADME, organism-based; set-up: time 24 hrs, dose 10 mg/kg, route po; settings: in vivo
NCI-H460 [8] = test: Antitumor activity against human NCI-H460 cells with high-OXPHOS xenografted in mouse assessed as reduction in Ki67 expression at 30 mg/kg, po bid administered for 18 days in presence of trametinib by immunohistochemical analysis; type: functional, organism-based; settings: time 18.0 day
A549 [9] = test: Induction of apoptosis in human Trametinib-resistant A549 cells with high-OXPHOS harboring KRAS G12S mutant assessed as late apoptotic cells at 20 nM incubated for 72 hrs in presence of trametinib by Annexin V-FITC/propidium iodide staining based flow cytometry analysis (reference value: 4.31%); type: functional
NCI-H460 [10] = test: Inhibition of mitochondrial complex III in human NCI-H460 cells at 1 uM incubated for 12 hrs by seahorse XF96 metabolic flux analyzer relative to control; type: cell-based
[11] = Toxicity in mouse xenografted with human NCI-H460 cells with high-OXPHOS assessed as reduction in serum ALT level at 30 mg/kg, po bid administered for 18 days; type: organism-based; settings: in vivo, 432 h, time 18 day
NCI-H460 [12] = test: Potentiation of trametinib-induced cytotoxicity against human NCI-H460 cells with high-OXPHOS harboring KRAS Q61H mutant assessed as reduction in cell viability at 10 to 20 uM incubated for 72 hrs by CellTiter 96 cell proliferation assay; type: functional, cell-based; settings: dose 10-20 µM
[13] = Apparent volume of distribution in ICR mouse at 1 mg/kg, iv measured for 24 hrs by LC-MS/MS analysis; type: ADME, organism-based; settings: in vivo, read-out: Vz
NCI-H460 [14] = test: Induction of apoptosis in human NCI-H460 cells with high-OXPHOS assessed as late apoptotic cells at 30 nM incubated for 48 hrs by Annexin V-FITC/propidium iodide staining based flow cytometry analysis (reference value: 12.8%); type: functional
[15] = Half life in ICR mouse at 10 mg/kg, po measured for 24 hrs by LC-MS/MS analysis; type: ADME, organism-based; settings: in vivo

MRT last at 24 h [6]: 1.5 h | Cmax [7]: 618 ng/mL | Vd [13]: 9.34 L/kg | half-life [15]: 2.5 h
Compound: Cc1c(C(=O)N2CCN(Cc3ccc(OCC(F)(F)F)cc3)CC2)nnn1Cc1ccc(C(=O)Nc2ccc(C(F)(F)F)cc2)nc1
Activity [1]: Non-Toxic | inhibition (A549 [2]): Active | Activity (NCI-H460 [3]): 16.2% | inhibition (NCI-H460 [4]): Dose-Dependent Effect | inhibition (A549 [5]): Active | Activity (NCI-H460 [8]): Active | Activity (A549 [9]): 43.4% | inhibition (NCI-H460 [10]): 28.1% | Activity [11]: Non-Toxic | Activity (NCI-H460 [12]): Active | Activity (NCI-H460 [14]): 37.8%
